The source made the active and inactive calls.
Legend:
Type in all cases: functional
cells = experiment: cells
[1] = A Cell Based Secondary Assay to Explore Cytotoxicity in THP-1 Cells of Compounds that Modulate Mycobacterium tuberculosis in Media Containing Glycerol versus Media without Glycerol (2).
[2] = Vero cell cytotoxicity, cytotoxicity control for M. tuberculosis inhibitor project, purified and synthesized samples, set 3 (AID 504684)
[3] = HepG2 cell cytotoxicity, cytotoxicity control, set 4 (AID 504910); details: Mycobacterium tuberculosis
[4] = THP-1 cell cytotoxicity, cytotoxicity control, set 4 (AID 504911); details: Mycobacterium tuberculosis
[5] = A Cell Based Secondary Assay to Explore Cytotoxicity in HepG2 Cells of Compounds that Modulate Mycobacterium tuberculosis in Media Containing Glycerol versus Media without Glycerol (2).
[6] = HepG2 cell cytotoxicity, dose response, cytotoxicity control, set 3 (AID 504853); details: Mycobacterium tuberculosis
[7] = THP-1 cell cytotoxicity, dose response, cytotoxicity control, set 3 (AID 504852); details: Mycobacterium tuberculosis
[8] = target: DNA dC->dU-editing enzyme APOBEC-3G (Homo sapiens, UniProt Q9HC16); experiment: inhibition of APOBEC3G ssDNA deamination – biochemical, fluorescence, single-stranded DNA substrate, SAR follow-up (AID 602136); details: read-out: IC50_Mean
Chain of DNA dC->dU-editing enzyme APOBEC-3G (Q9HC16 whole entry): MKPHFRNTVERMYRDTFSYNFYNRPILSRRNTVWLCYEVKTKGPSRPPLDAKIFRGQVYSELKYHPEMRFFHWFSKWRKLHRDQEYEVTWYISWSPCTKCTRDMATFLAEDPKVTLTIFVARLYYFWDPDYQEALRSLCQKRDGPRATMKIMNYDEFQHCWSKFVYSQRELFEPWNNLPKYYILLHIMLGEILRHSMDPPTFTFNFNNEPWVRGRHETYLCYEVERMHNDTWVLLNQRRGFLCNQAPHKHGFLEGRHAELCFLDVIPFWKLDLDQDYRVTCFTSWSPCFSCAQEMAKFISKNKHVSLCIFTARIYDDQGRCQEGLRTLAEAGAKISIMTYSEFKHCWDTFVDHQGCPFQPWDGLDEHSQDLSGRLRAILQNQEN

[9] = target: DNA dC->dU-editing enzyme APOBEC-3A (Homo sapiens, UniProt P31941); experiment: SAR analysis of small molecule inhibitors of APOBEC3A DNA Deaminase via a fluorescence-based single-stranded DNA deaminase assay.; details: read-out: IC50_Mean
Chain of DNA dC->dU-editing enzyme APOBEC-3A (P31941 whole entry): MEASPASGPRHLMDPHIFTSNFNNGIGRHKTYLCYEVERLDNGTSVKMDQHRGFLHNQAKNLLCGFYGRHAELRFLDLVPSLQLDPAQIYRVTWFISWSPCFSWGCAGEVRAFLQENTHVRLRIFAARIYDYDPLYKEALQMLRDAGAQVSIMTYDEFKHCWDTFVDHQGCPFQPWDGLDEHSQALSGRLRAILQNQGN

[10] = target: Protein disulfide-isomerase (Homo sapiens, UniProt P07237); experiment: inhibition of PDI-driven insulin aggregation – biochemical, turbidity, absorbance, cherry-picked samples, dose response (AID 602350)
Chain of Protein disulfide-isomerase (P07237 whole entry): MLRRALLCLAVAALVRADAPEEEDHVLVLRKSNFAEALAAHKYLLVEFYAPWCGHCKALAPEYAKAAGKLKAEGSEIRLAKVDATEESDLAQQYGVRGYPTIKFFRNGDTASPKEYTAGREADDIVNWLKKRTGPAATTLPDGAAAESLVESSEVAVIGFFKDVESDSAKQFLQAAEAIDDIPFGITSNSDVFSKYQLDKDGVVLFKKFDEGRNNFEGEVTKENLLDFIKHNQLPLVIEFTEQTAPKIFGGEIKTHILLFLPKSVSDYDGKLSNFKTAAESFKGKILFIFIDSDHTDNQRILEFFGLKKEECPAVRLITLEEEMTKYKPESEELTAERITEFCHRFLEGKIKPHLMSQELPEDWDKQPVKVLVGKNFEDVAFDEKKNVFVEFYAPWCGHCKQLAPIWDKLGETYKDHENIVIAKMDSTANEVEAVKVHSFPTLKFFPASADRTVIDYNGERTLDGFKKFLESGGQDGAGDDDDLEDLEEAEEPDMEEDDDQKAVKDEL

Nc1c(C(=O)NC2CCCCC2)nsc1C(=O)OCC(=O)NC1CCCCC1
active: IC50 (cells) 1.88 µM | CC50 [1] > 100 µM | CC50 [2] > 100 µM | CC50 [3] > 50 µM | CC50 [4] > 100 µM | CC50 [5] > 50 µM | CC50 [6] > 50 µM | CC50 [7] > 100 µM

CC(=O)c1c(C)[nH]c(C(=O)CN(C)CC(=O)Nc2ccccc2Cl)c1C
inactive: IC50 [8] > 99 µM | IC50 [9] > 99 µM

Cc1noc(C)c1S(=O)(=O)Nc1ccc2c(c1)CC(=O)N([C@H](C)CO)C[C@H](C)[C@H](CN(C)S(=O)(=O)c1ccccc1)O2
active: AC50 [10] 19.5 µM

Source: ChEMBL document CHEMBL1201862, “PubChem BioAssay data set” (2004)
